Data from US4769384A, “Benzimidazole derivatives” (Nippon Shinyaku Co. Ltd., priority 1985, dated 1988).

Experiments:
Type in all cases: in vivo
[1] = Acute toxicity, oral, rats; settings: p.o., two weeks
Experimental: (§1) Method: Male mice of six weeks of age or male rats of six weeks of age were fasted for 24 hours and subjected to the test.
(§2) The compound to be tested was suspended in physiological saline solution containing 0.5% of methylcellulose. The suspension was administered orally.

[2] = Anti-ulcer action: water-immersion stress ulcer in rats, oral (ulcer index); settings: per os
Experimental: Biological test method: Male rats of seven weeks of age were fasted for 24 hours and subjected to the test. The compound to be tested was suspended in a physiological saline solution containing 0.5% methylcellulose therein. 10 ml/kg of it was administered orally. The animals were immediately placed in a stress cage and immersed in a water bath of 23° C. to the depth of xiphoid. After 17 hours, they were sacrificed by cervical dislocation. The stomach was isolated therefrom. 7 ml of 2% formaline solution was introduced into the stomach for fixation. Then the stomach was cut along a greater curvature. The length of ulcer produced in fundus was measured under a microscope and the total ulcer length (in mm) was defined as an ulcer index per rat. Significance between mean ulcer indices was verified by the Student t-test.

[3] = Acute toxicity, oral, mice; settings: p.o., two weeks
Experimental: as §1, §2

[4] = 20 mg/kg (# dose of salt as the corresponding base)
[5] = 40 mg/kg (# dose of salt as the corresponding base)
[6] = 80 mg/kg (# dose of salt as the corresponding base)
[7] = 5 mg/kg (# dose of salt as the corresponding base)
[8] = 10 mg/kg (# dose of salt as the corresponding base)
[9] = 5 mg/kg (# dose of salt as the corresponding base), 5 mg/kg
[10] = 10 mg/kg (# dose of salt as the corresponding base), 10 mg/kg
[11] = 20 mg/kg (# dose of salt as the corresponding base), 20 mg/kg

## COC(=O)c1cccc2nc(/C=C/c3ccc(OC)cc3)[nH]c12.O=P(O)(O)O [Example 54, Methyl (E)-2-(4-methoxystyryl)benzimidazole-4-carboxylate phosphate]
[1]; 2636 mg/kg
  Death Ratio: 0/4
[2]; [4]
  Antiulcer Action (inhibition %) after 17 hours: 55%
[2]; [5]
  Antiulcer Action (inhibition %) after 17 hours: 86%
[2]; [6]
  Antiulcer Action (inhibition %) after 17 hours: 98%

## COC(=O)c1cccc2nc(/C=C/c3ccc(OC)c(OC)c3)[nH]c12.Cl [Example 70, Methyl (E)-2-(3,4-dimethoxystyryl)benzimidazole-4-carboxylate hydrochloride]
[3]; 2340 mg/kg
  Death Ratio: 1/5
[2]; [7]
  Antiulcer Action (inhibition %) after 17 hours: 3%
[2]; [8]
  Antiulcer Action (inhibition %) after 17 hours: 72%
[2]; [4]
  Antiulcer Action (inhibition %) after 17 hours: 80%

## COC(=O)c1cccc2nc(/C=C/c3ccc(OC)c(OC)c3)[nH]c12 [Example 65, Methyl (E)-2-(3,4-dimethoxystyryl)benzimidazole-4-carboxylate d-10-camphorsulfonate]
[3]; 3440 mg/kg
  Death Ratio: 2/5
[2]; [9]
  Antiulcer Action (inhibition %) after 17 hours: 12%
[2]; [10]
  Antiulcer Action (inhibition %) after 17 hours: 69%
[2]; [11]
  Antiulcer Action (inhibition %) after 17 hours: 89%

## COC(=O)c1cccc2[nH]c(/C=C/c3ccc(OC)c(OC)c3)nc12 [Example 66, Methyl (E)-2-(3,4-dimethoxystyryl)benzimidazole-4-carboxylate 1-naphthalenesulfonate]
[2]; [9]
  Antiulcer Action (inhibition %) after 17 hours: 7%
[2]; [10]
  Antiulcer Action (inhibition %) after 17 hours: 63%
[2]; [11]
  Antiulcer Action (inhibition %) after 17 hours: 87%

## COC(=O)c1cccc2nc(/C=C/c3ccc(OC)c(OC)c3)[nH]c12.O=S(=O)(O)c1ccccc1 [Example 86, Methyl (E)-2-(3,4-dimethoxystyryl)benzimidazole-4-carboxylate benzenesulfonate]
[1]; 2280 mg/kg
  Death Ratio: 0/3
[2]; [7]
  Antiulcer Action (inhibition %) after 17 hours: 4%
[2]; [8]
  Antiulcer Action (inhibition %) after 17 hours: 35%
[2]; [4]
  Antiulcer Action (inhibition %) after 17 hours: 98%

## COC(=O)c1cccc2nc(/C=C/c3ccc(OC)cc3)[nH]c12 [Example 14, Methyl (E)-2-(4-methoxystyryl)benzimidazole-4-carboxylate]
[1]; 2000 mg/kg
  Death Ratio: 0/4
[2]; 20 mg/kg
  Antiulcer Action (inhibition %) after 17 hours: 26%
[2]; 40 mg/kg
  Antiulcer Action (inhibition %) after 17 hours: 81%
[2]; 80 mg/kg
  Antiulcer Action (inhibition %) after 17 hours: 96%

## COC(=O)c1cccc2nc(/C=C/c3ccc(OC)c(OC)c3)[nH]c12 [Example 1, Methyl (E)-2-(3,4-dimethoxystyryl)benzimidazole-4-carboxylate]
[3]; 2000 mg/kg
  Death Ratio: 0/5
[1]; 2000 mg/kg
  Death Ratio: 1/4
[2]; 10 mg/kg
  Antiulcer Action (inhibition %) after 17 hours: 40%
[2]; 20 mg/kg
  Antiulcer Action (inhibition %) after 17 hours: 78%
[2]; 40 mg/kg
  Antiulcer Action (inhibition %) after 17 hours: 97%

## C#CCOc1ccc(/C=C/c2nc3c(C(=O)OC)cccc3[nH]2)cc1 [Example 30, Methyl (E)-2-[4-(2-propynyloxy)styryl]benzimidazole-4-carboxylate phosphate]
[2]; [4]
  Antiulcer Action (inhibition %) after 17 hours: 44%
[2]; [5]
  Antiulcer Action (inhibition %) after 17 hours: 55%
[2]; [6]
  Antiulcer Action (inhibition %) after 17 hours: 82%

## Br.COC(=O)c1cccc2nc(/C=C/c3ccc(OC)c(OC)c3)[nH]c12 [Example 69, Methyl (E)-2-(3,4-dimethoxystyryl)benzimidazole-4-carboxylate hydrobromide]
[3]; 2560 mg/kg
  Death Ratio: 2/5
[2]; [7]
  Antiulcer Action (inhibition %) after 17 hours: 38%
[2]; [8]
  Antiulcer Action (inhibition %) after 17 hours: 82%

## CN/C(=N/CCSCc1nc[nH]c1C)NC#N [Cimetidine, reference compound]
[2]; 200 mg/kg
  Antiulcer Action (inhibition %) after 17 hours: 66%

## COC(=O)c1cccc2nc(/C=C/c3ccc(OC)c(OC)c3)[nH]c12.O=S(=O)(O)O [Example 67, Methyl (E)-2-(3,4-dimethoxystyryl)benzimidazole-4-carboxylate sulfate]
[2]; [7]
  Antiulcer Action (inhibition %) after 17 hours: 48%
[2]; [8]
  Antiulcer Action (inhibition %) after 17 hours: 72%

## CCOc1ccc(/C=C/c2nc3cccc(C(=O)OC)c3[nH]2)cc1OC.O=P(O)(O)O [Example 53, Methyl (E)-2-(4-ethoxy-3-methoxystyryl)benzimidazole-4-carboxylate phosphate]
[2]; [4]
  Antiulcer Action (inhibition %) after 17 hours: 81%
[2]; [5]
  Antiulcer Action (inhibition %) after 17 hours: 99%
[2]; [6]
  Antiulcer Action (inhibition %) after 17 hours: 99%

## COC(=O)c1cccc2nc(/C=C/c3ccc(OC)c(OC)c3)[nH]c12 [1 (phosphate), Methyl (E)-2-(3,4-dimethoxystyryl)benzimidazole-4-carboxylate]
[3]; 2580 mg/kg
  Death Ratio: 0/3
[1]; 2580 mg/kg
  Death Ratio: 0/4
[2]; [8]
  Antiulcer Action (inhibition %) after 17 hours: 66%
[2]; [4]
  Antiulcer Action (inhibition %) after 17 hours: 92%
